From patent publication US7507736B2, “Indol-2-yl-piperazin-1-yl-methanone derivatives” (Hoffmann-La Roche Inc., priority 2007, dated 2009)

These molecules were tested against T1, human H3R (Homo sapiens, UniProt Q9Y5N1) (assay: Binding assay with 3H-(R)α-methylhistamine (competition binding, H3R-CHO membranes)). Conditions: competition vs 3H(R)α-methylhistamine (1 nM), membranes of the human H3R-CHO cell line; Ki calculated from IC50 by Cheng-Prusoff.
T1 construct: expressed in transfected cells; host or cells: CHO cells
T1 sequence (Q9Y5N1 whole entry): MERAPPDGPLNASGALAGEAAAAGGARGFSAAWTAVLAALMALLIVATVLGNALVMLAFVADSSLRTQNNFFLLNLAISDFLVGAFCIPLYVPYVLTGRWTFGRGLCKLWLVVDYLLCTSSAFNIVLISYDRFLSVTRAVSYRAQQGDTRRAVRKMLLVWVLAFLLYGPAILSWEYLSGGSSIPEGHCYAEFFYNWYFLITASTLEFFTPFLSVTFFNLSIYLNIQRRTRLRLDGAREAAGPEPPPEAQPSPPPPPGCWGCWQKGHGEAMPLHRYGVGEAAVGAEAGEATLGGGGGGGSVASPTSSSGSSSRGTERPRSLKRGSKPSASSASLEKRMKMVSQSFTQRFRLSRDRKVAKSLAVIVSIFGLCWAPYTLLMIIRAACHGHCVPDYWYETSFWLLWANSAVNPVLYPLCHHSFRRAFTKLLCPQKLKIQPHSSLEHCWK
Protocol: Binding Assay with ^3H—(R)α-methylhistamine
Saturation binding experiments were performed using HR3-CHO membranes prepared as described in Takahashi, K, Tokita, S., Kotani, H. (2003) J. Pharmacol. Exp. Therapeutics 307, 213-218.
An appropriate amount of membrane (60 to 80 μg protein/well) was incubated with increasing concentrations of ^3H(R)α-Methylhistamine di-hydrochloride (0.10 to 10 nM). Non specific binding was determined using a 200 fold excess of cold (R)α-Methylhistamine dihydrobromide (500 nM final concentration). The incubation was carried out at room temperature (in deep-well plates shaking for three hours). The final volume in each well was 250 μl. The incubation was followed by rapid filtration on GF/B filters (pre-soaked with 100 μl of 0.5% PEI in Tris 50 mM shaking at 200 rpm for two hours). The filtration was made using a cell-harvester and the filter plates were then washed five times with ice cold washing buffer containing 0.5 M NaCl. After harvesting, the plates were dried at 55° C. for 60 min, then we added scintillation fluid (Microscint 40, 40 microl in each well) and the amount of radioactivity on the filter was determined in Packard top-counter after shaking the plates for two hours at 200 rpm at room temperature. • Binding Buffer: 50 mM Tris-HCl pH 7.4 and 5 mM MgCl2×6H2O pH 7.4. Washing Buffer: 50 mM Tris-HCl pH 7.4 and 5 mM MgCl2×6H2O and 0.5 M NaCl pH 7.4.
Indirect measurement of affinity of H3R inverse agonists: twelve increasing concentrations (ranging from 10 μM to 0.3 nM) of the selected compounds were always tested in competition binding experiments using membrane of the human H3R—CHO cell line. An appropriate amount of protein, e.g. approximately 500 cpm binding of RAMH at Kd, were incubated for 1 hour at room temperature in 250 μl final volume in 96-well plates in presence of ^3H(R)α-methylhistamine (1 nM final concentration=Kd). Non-specific binding was determined using a 200 fold excess of cold (R)α-methylhistamine dihydrobromide.
All compounds were tested at a single concentration in duplicate. […] The concentration at which 50% inhibition of the radioligand ^3H(R)α-methylhistamine is obtained (the IC50) is determined from the linear regression of a plot of the logarithm of the concentration versus percent inhibition measured for the different concentrations. Ki's were calculated from IC50 based on Cheng-Prusoff equation (Cheng, Y. Prusoff, W H (1973) Biochem Pharmacol 22, 3099-3108): Ki=IC50/[1+D/Kd] wherein D is the concentration of the radioligand and Kd is the binding constant for the radioligand binding to the receptor under the conditions used in the competition experiment.

| SMILES | Ki |
| --- | --- |
| COC(=O)N1CCN(C(=O)c2cc3cc(OC4CCN(C(C)C)CC4)ccc3n2C(C)C)CC1 [Example 73, 4-[1-Isopropyl-5-(1-isopropyl-piperidin-4-yloxy)-1H-indole-2-carbonyl]-piperazine-1-carboxylic acid methyl ester] | 10.4 nM |
| CC(C)N1CCC(Oc2ccc3c(c2)cc(C(=O)N2CCN(S(C)(=O)=O)CC2)n3CC(F)F)CC1 [Example 55, [1-(2,2-Difluoro-ethyl)-5-(1-isopropyl-piperidin-4-yloxy)-1H-indol-2-yl]-(4-methanesulfonyl-piperazin-1-yl)-methanone] | 6.7 nM |
| CC(C)N1CCC(Oc2cc3cc(C(=O)N4CCN(S(C)(=O)=O)CC4)n(C(C)C)c3cc2Br)CC1 [Example 5, [6-Bromo-1-isopropyl-5-(1-isopropyl-piperidin-4-yloxy)-1H-indol-2-yl]-(4-methanesulfonyl-piperazin-1-yl)-methanone] | 3.4 nM |
| CC(=O)N1CCN(C(=O)c2cc3cc(OC4CCN(C(C)C)CC4)c(Br)cc3n2-c2ccnc(Cl)c2)CC1 [Example 28, 1-{4-[6-Bromo-1-(2-chloro-pyridin-4-yl)-5-(1-isopropyl-piperidin-4-yloxy)-1H-indole-2-carbonyl]-piperazin-1-yl}-ethanone] | 1.8 nM |
| Cc1ccc(S(=O)(=O)N2CCN(C(=O)c3cc4cc(O[C@H]5C[C@H]6CC[C@@H](C5)N6C(C)C)ccc4n3C(C)C)CC2)cc1 [Example 44, [1-Isopropyl-5-((1S,3r,5R)-8-isopropyl-8-aza-bicyclo[3.2.1]oct-3-yloxy)-1H-indol-2-yl]-[4-(toluene-4-sulfonyl)-piperazin-1-yl]-methanone] | 2.4 nM |

Further lines, results first:

| Ki | SMILES |
| --- | --- |
| 2.3 nM | CC(C)N1CCC(Oc2cc3cc(C(=O)N4CCN(C(=O)C5CC5)CC4)[nH]c3cc2Br)CC1 [Example 18, [6-Bromo-5-(1-isopropyl-piperidin-4-yloxy)-1H-indol-2-yl]-(4-cyclopropanecarbonyl-piperazin-1-yl)-methanone] |
| 4.3 nM | CC(C)N1CCC(Oc2cc3cc(C(=O)N4CCN(S(=O)(=O)N(C)C)CC4)[nH]c3cc2Br)CC1 [Example 3, 4-[6-Bromo-5-(1-isopropyl-piperidin-4-yloxy)-1H-indole-2-carbonyl]-piperazine-1-sulfonic acid dimethylamide] |
